Experimental data reported in patent US5776886A, “Intravaginal preparation containing physiologically active peptide” (Teikoku Seiyaku Kabushiki Kaisha, priority 1993, dated 1998).

Key:
Assay type in all cases: in vivo, Wistar rats
[1] = tested on: calcium level in the serum; assay: Experiment 3: effects of various sucrose fatty acid esters on serum calcium reduction; conditions: for Reduction rate (%) of calcium level in the serum: rats
Description: (§1) An intravaginal suppository was administered into the rat's vagina, and the blood was collected periodically (2, 4 and 6 hours after administration of the test preparation).
(§2) The serum was separated, and the calcium level in the serum was determined by using a kit for determination of calcium (Calcium C Test Wako; manufactured by Wako Pure Chemical Industries, Ltd.) (n=3).
In the same manner, there were prepared various sucrose fatty acid esters having the same HLB value but being combined with a different fatty acid (Table B), and four kinds of intravaginal suppositories for rats were prepared by using each 100 mg of sucrose fatty acid ester.
In the same manner as in Experiment 1, each intravaginal suppository was administered to the rat's vagina, and the blood was collected periodically 2, 4 and 6 hours after administration of intravaginal suppository), and the calcium level in the serum thereof was determined (n=4).

[2] = tested on: calcium level in the serum; assay: Experiment 2: effects of various bases on serum calcium reduction; conditions: for Reduction rate (%) of calcium level in the serum: S-970 + citric acid, intravaginal suppository 20 μg, rats
Description: as §1, §2
In the same manner as in Experiment 1, each intravaginal suppository was administered to the rat's vagina, and the blood was collected periodically (2, 4 and 6 hours after administration of intravaginal suppository), and the calcium level in the serum thereof was determined (n=4).

[3] = tested on: calcium level in the serum; assay: Experiment 7: effects of pH of the solution in the suppository on serum calcium reduction; conditions: for Reduction rate (%) of calcium level in the serum: citric acid + S-970, intravaginal 20 μg, rats
Description: as §1, §2
In the same manner as in Experiment 1, each intravaginal suppository was administered to the rat's vagina, and the blood was collected periodically (2, 4 and 6 hours after administration of intravaginal suppository), and the calcium level in the serum thereof was determined (n=3).

[4] = tested on: calcium level in the serum; assay: Experiment 4: effects of the concentration of sucrose fatty acid ester on serum calcium reduction
Description: as §1, §2
Human calcitonin (2 mg) was precisely measured, and thereto were added citric acid (100 mg) and Ryoto-Sugar Ester S-970 (50 mg, 100 mg or 400 mg), and the mixture was mixed well.
In the same manner as in Experiment 1, each intravaginal suppository was administered to the rat's vagina, and the blood was collected periodically (2 and 4 hours after administration of intravaginal suppository), and the calcium level in the serum thereof was determined (n=3).

[5] = tested on: calcium level in the serum; assay: Experiment 5: sucrose fatty acid ester with various organic acids, serum calcium reduction; conditions: for Reduction rate (%) of calcium level in the serum: intravaginal suppository 20 μg, rats
Description: as §1, §2
In the same manner as in Experiment 1, each intravaginal suppository was administered to the rat's vagina, and the blood was collected periodically (2, 4 and 6 hours after administration of intravaginal suppository), and the calcium level in the serum thereof was determined (n=5).

Q: Which results are given for Human calcitonin?
A: Reduction rate (%) of calcium level in the serum ([1]; Ryoto-Sugar Ester (L-1695), HLB 16, lauric acid, + citric acid, intravaginal suppository 20 μg, 2 hr): 12.8%; Reduction rate (%) of calcium level in the serum ([1]; Ryoto-Sugar Ester (L-1695), HLB 16, lauric acid, + citric acid, intravaginal suppository 20 μg, 4 hr): 13.4%; Reduction rate (%) of calcium level in the serum ([1]; Ryoto-Sugar Ester (L-1695), HLB 16, lauric acid, + citric acid, intravaginal suppository 20 μg, 6 hr): 11.4%; Reduction rate (%) of calcium level in the serum ([1]; Ryoto-Sugar Ester (S-370), HLB 3, stearic acid, + citric acid, intravaginal suppository 20 μg, 2 hr): 13.4%; Reduction rate (%) of calcium level in the serum ([1]; Ryoto-Sugar Ester (S-370), HLB 3, stearic acid, + citric acid, intravaginal suppository 20 μg, 4 hr): 18.2%; Reduction rate (%) of calcium level in the serum ([1]; Ryoto-Sugar Ester (S-370), HLB 3, stearic acid, + citric acid, intravaginal suppository 20 μg, 6 hr): 11.4%; Reduction rate (%) of calcium level in the serum ([1]; Ryoto-Sugar Ester (S-570), HLB 5, stearic acid, + citric acid, intravaginal suppository 20 μg, 2 hr): 12.8%; Reduction rate (%) of calcium level in the serum ([1]; Ryoto-Sugar Ester (S-570), HLB 5, stearic acid, + citric acid, intravaginal suppository 20 μg, 4 hr): 17.2%; Reduction rate (%) of calcium level in the serum ([1]; Ryoto-Sugar Ester (S-570), HLB 5, stearic acid, + citric acid, intravaginal suppository 20 μg, 6 hr): 12.0%; Reduction rate (%) of calcium level in the serum ([1]; Ryoto-Sugar Ester (S-770), HLB 7, stearic acid, + citric acid, intravaginal suppository 20 μg, 2 hr): 13.6%; Reduction rate (%) of calcium level in the serum ([1]; Ryoto-Sugar Ester (S-770), HLB 7, stearic acid, + citric acid, intravaginal suppository 20 μg, 4 hr): 14.8%; Reduction rate (%) of calcium level in the serum ([1]; Ryoto-Sugar Ester (S-770), HLB 7, stearic acid, + citric acid, intravaginal suppository 20 μg, 6 hr): 11.8%; Reduction rate (%) of calcium level in the serum ([1]; Ryoto-Sugar Ester (S-970), HLB 9, stearic acid, + citric acid (Table 3), intravaginal suppository 20 μg, 2 hr): 12.2%; Reduction rate (%) of calcium level in the serum ([1]; Ryoto-Sugar Ester (S-970), HLB 9, stearic acid, + citric acid (Table 3), intravaginal suppository 20 μg, 4 hr): 17.4%; Reduction rate (%) of calcium level in the serum ([1]; Ryoto-Sugar Ester (S-970), HLB 9, stearic acid, + citric acid (Table 3), intravaginal suppository 20 μg, 6 hr): 11.8%; Reduction rate (%) of calcium level in the serum ([1]; Ryoto-Sugar Ester (S-1670), HLB 16, stearic acid, + citric acid, intravaginal suppository 20 μg, 2 hr): 11.4%; Reduction rate (%) of calcium level in the serum ([1]; Ryoto-Sugar Ester (S-1670), HLB 16, stearic acid, + citric acid, intravaginal suppository 20 μg, 4 hr): 16.4%; Reduction rate (%) of calcium level in the serum ([1]; Ryoto-Sugar Ester (S-1670), HLB 16, stearic acid, + citric acid, intravaginal suppository 20 μg, 6 hr): 12.6%; Reduction rate (%) of calcium level in the serum ([1]; Ryoto-Sugar Ester L-595 + L-1695 3:2, HLB 9, lauric acid, + citric acid, intravaginal suppository, 2 hr): 11.0%; Reduction rate (%) of calcium level in the serum ([1]; Ryoto-Sugar Ester L-595 + L-1695 3:2, HLB 9, lauric acid, + citric acid, intravaginal suppository, 4 hr): 14.4%; Reduction rate (%) of calcium level in the serum ([1]; Ryoto-Sugar Ester L-595 + L-1695 3:2, HLB 9, lauric acid, + citric acid, intravaginal suppository, 6 hr): 9.7%; Reduction rate (%) of calcium level in the serum ([1]; Ryoto-Sugar Ester P-070 + P-1670 4:5, HLB 9, palmitic acid, + citric acid, intravaginal suppository, 2 hr): 8.2%; Reduction rate (%) of calcium level in the serum ([1]; Ryoto-Sugar Ester P-070 + P-1670 4:5, HLB 9, palmitic acid, + citric acid, intravaginal suppository, 4 hr): 17.3%; Reduction rate (%) of calcium level in the serum ([1]; Ryoto-Sugar Ester P-070 + P-1670 4:5, HLB 9, palmitic acid, + citric acid, intravaginal suppository, 6 hr): 13.8%; Reduction rate (%) of calcium level in the serum ([1]; Ryoto-Sugar Ester S-370 + S-1670 5:6, HLB 9, stearic acid, + citric acid, intravaginal suppository, 2 hr): 6.9%; Reduction rate (%) of calcium level in the serum ([1]; Ryoto-Sugar Ester S-370 + S-1670 5:6, HLB 9, stearic acid, + citric acid, intravaginal suppository, 4 hr): 15.3%; Reduction rate (%) of calcium level in the serum ([1]; Ryoto-Sugar Ester S-370 + S-1670 5:6, HLB 9, stearic acid, + citric acid, intravaginal suppository, 6 hr): 12.3%; Reduction rate (%) of calcium level in the serum ([1]; Ryoto-Sugar Ester S-970 1:0 (control of Table B), HLB 9, stearic acid, + citric acid (Table 4), intravaginal suppository, 2 hr): 6.3%; Reduction rate (%) of calcium level in the serum ([1]; Ryoto-Sugar Ester S-970 1:0 (control of Table B), HLB 9, stearic acid, + citric acid (Table 4), intravaginal suppository, 4 hr): 11.6%; Reduction rate (%) of calcium level in the serum ([1]; Ryoto-Sugar Ester S-970 1:0 (control of Table B), HLB 9, stearic acid, + citric acid (Table 4), intravaginal suppository, 6 hr): 11.0%; promotion effects on absorption of calcitonin ([1]; combination of sucrose fatty acid ester and citric acid, esters of different HLB value and fatty acid): not affected by either the HLB value of the sucrose fatty acid ester to be used or by the kinds of the fatty acids to be combined; Reduction rate (%) of calcium level in the serum ([2]; base Cacao butter, 2 hr): 12.5%; Reduction rate (%) of calcium level in the serum ([2]; base Cacao butter, 4 hr): 10.7%; Reduction rate (%) of calcium level in the serum ([2]; base Cacao butter, 6 hr): 8.3%; Reduction rate (%) of calcium level in the serum ([2]; base Pharmasol B-105, 2 hr): 13.4%; Reduction rate (%) of calcium level in the serum ([2]; base Pharmasol B-105, 4 hr): 14.8%; Reduction rate (%) of calcium level in the serum ([2]; base Pharmasol B-105, 6 hr): 10.6%; Reduction rate (%) of calcium level in the serum ([2]; base Witepsol H-15, 2 hr): 16.8%; Reduction rate (%) of calcium level in the serum ([2]; base Witepsol H-15, 4 hr): 17.7%; Reduction rate (%) of calcium level in the serum ([2]; base Witepsol H-15, 6 hr): 10.4%; Reduction rate (%) of calcium level in the serum ([2]; base Witepsol S-55, 2 hr): 16.5%; Reduction rate (%) of calcium level in the serum ([2]; base Witepsol S-55, 4 hr): 22.5%; Reduction rate (%) of calcium level in the serum ([2]; base Witepsol S-55, 6 hr): 13.0%; Reduction rate (%) of calcium level in the serum ([2]; base Witepsol W-35, 2 hr): 6.6%; Reduction rate (%) of calcium level in the serum ([2]; base Witepsol W-35, 4 hr): 20.4%; Reduction rate (%) of calcium level in the serum ([2]; base Witepsol W-35, 6 hr): 13.2%; promotion effect on absorption of calcitonin ([2]; combination of sucrose fatty acid ester and citric acid, five bases): extremely excellent promotion effect on absorption of calcitonin regardless of any base to be used; promotion effect of a combination of a sucrose fatty acid ester and citric acid ([3]; pH of the solution 3.0 to 5.5): observed in the cases of pH 3.0 to 5.5, and the effects thereof were not significantly different in the cases of pH 3.0 to 4.5; Reduction rate (%) of calcium level in the serum ([3]; pH of the solution in suppository 3.0, 2 hr): 11.0%; Reduction rate (%) of calcium level in the serum ([3]; pH of the solution in suppository 3.0, 4 hr): 22.0%; Reduction rate (%) of calcium level in the serum ([3]; pH of the solution in suppository 3.0, 6 hr): 8.7%; Reduction rate (%) of calcium level in the serum ([3]; pH of the solution in suppository 3.5, 2 hr): 9.4%; Reduction rate (%) of calcium level in the serum ([3]; pH of the solution in suppository 3.5, 4 hr): 19.8%; Reduction rate (%) of calcium level in the serum ([3]; pH of the solution in suppository 3.5, 6 hr): 8.8%; Reduction rate (%) of calcium level in the serum ([3]; pH of the solution in suppository 4.0, 2 hr): 9.4%; Reduction rate (%) of calcium level in the serum ([3]; pH of the solution in suppository 4.0, 4 hr): 20.2%; Reduction rate (%) of calcium level in the serum ([3]; pH of the solution in suppository 4.0, 6 hr): 10.2%; Reduction rate (%) of calcium level in the serum ([3]; pH of the solution in suppository 4.5, 2 hr): 9.5%; Reduction rate (%) of calcium level in the serum ([3]; pH of the solution in suppository 4.5, 4 hr): 22.8%; Reduction rate (%) of calcium level in the serum ([3]; pH of the solution in suppository 4.5, 6 hr): 9.1%; Reduction rate (%) of calcium level in the serum ([3]; pH of the solution in suppository 5.0, 2 hr): 10.2%; Reduction rate (%) of calcium level in the serum ([3]; pH of the solution in suppository 5.0, 4 hr): 11.4%; Reduction rate (%) of calcium level in the serum ([3]; pH of the solution in suppository 5.0, 6 hr): 2.7%; Reduction rate (%) of calcium level in the serum ([3]; pH of the solution in suppository 5.5, 2 hr): 8.1%; Reduction rate (%) of calcium level in the serum ([3]; pH of the solution in suppository 5.5, 4 hr): 13.2%; Reduction rate (%) of calcium level in the serum ([3]; pH of the solution in suppository 5.5, 6 hr): 4.3%; calcium level in the blood ([4]; sucrose fatty acid ester 1, 2 or 8 w/w % with citric acid): reduced at any concentration of the sucrose fatty acid ester to be used; Reduction rate (%) of calcium level in the serum ([4]; sucrose fatty acid ester (S-970) 1 w/w %, citric acid 100 mg per 5.00 g, intravaginal suppository 20 μg, rats, 2 hr): 10.8%; Reduction rate (%) of calcium level in the serum ([5]; organic acid: citric acid (pH 4) + Ryoto-Sugar Ester R-970, 2 hr): 11.4%; Reduction rate (%) of calcium level in the serum ([5]; organic acid: citric acid (pH 4) + Ryoto-Sugar Ester R-970, 4 hr): 19.6%; Reduction rate (%) of calcium level in the serum ([5]; organic acid: citric acid (pH 4) + Ryoto-Sugar Ester R-970, 6 hr): 8.4%; Reduction rate (%) of calcium level in the serum ([5]; organic acid: lactic acid (pH 4) + Ryoto-Sugar Ester R-970, 2 hr): 17.0%; Reduction rate (%) of calcium level in the serum ([5]; organic acid: lactic acid (pH 4) + Ryoto-Sugar Ester R-970, 4 hr): 10.6%; Reduction rate (%) of calcium level in the serum ([5]; organic acid: lactic acid (pH 4) + Ryoto-Sugar Ester R-970, 6 hr): 5.4%; Reduction rate (%) of calcium level in the serum ([5]; organic acid: malic acid (pH 4) + Ryoto-Sugar Ester R-970, 2 hr): 18.6%; Reduction rate (%) of calcium level in the serum ([5]; organic acid: malic acid (pH 4) + Ryoto-Sugar Ester R-970, 4 hr): 13.0%; Reduction rate (%) of calcium level in the serum ([5]; organic acid: malic acid (pH 4) + Ryoto-Sugar Ester R-970, 6 hr): 7.0%; Reduction rate (%) of calcium level in the serum ([5]; organic acid: tartaric acid (pH 4) + Ryoto-Sugar Ester R-970, 2 hr): 12.2%; Reduction rate (%) of calcium level in the serum ([5]; organic acid: tartaric acid (pH 4) + Ryoto-Sugar Ester R-970, 4 hr): 8.0%; Reduction rate (%) of calcium level in the serum ([5]; organic acid: tartaric acid (pH 4) + Ryoto-Sugar Ester R-970, 6 hr): 3.4%; calcium level ([5]; sucrose fatty acid ester with citric, tartaric, lactic or malic acid): significantly reduced regardless of any organic acid to be used
